How the values were obtained:
[1] = Acceleration test (40° C./75% relative humidity), synthetic tocopherol vs co-crystal, total tocopherol content; format: physicochemical
Method: The content was determined by HPLC, the content was calculated by the external standard method, and the content is calculated based on the total tocopherol content. Both the initial tocopherol contents in the synthetic tocopherol itself and in the co-crystals were set at 100%.

[2] = High temperature test (60° C.), content by HPLC and appearance; format: physicochemical
Method: (§1) The content was determined by HPLC, and the content was calculated by the external standard method.

[3] = Long-term test stability (25° C./60% relative humidity); format: physicochemical; conditions: Month 0, initial content set at 100%
Method: as §1

[4] = Accelerated test stability (40° C./75% relative humidity), D-α-tocopherol vs co-crystal; format: physicochemical
Method: as §1

[5] = Strong light irradiation test (5500 Lux), content by HPLC and appearance; format: physicochemical; conditions: 25° C.
Method: as §1

[6] = 200 g lean beef, 69 mg co-crystal or same equivalent, stored at 2-4° C. for 8 days
Method: A. the lean beef was cut into pieces with a size of about 2×2 cm, 200 grams for each.
All samples were placed in a metal dish, numbered and stored at 2-4° C. for 8 days.

Cc1c(C)c2c(c(C)c1O)CCC(C)(CCCC(C)CCCC(C)CCCC(C)C)O2 (racemic) [synthetic tocopherol, DL-α-tocopherol]
content ([1]; Month 0, initial set at 100%): 100.0%
content ([1]; Month 1): 94.1%

Cc1c(C)c2c(c(C)c1O)CC[C@@](C)(CCC[C@H](C)CCC[C@H](C)CCCC(C)C)O2 [D-α-tocopherol]
content ([2]; Day 0, HPLC, initial content set at 100%): 100%
content ([2]; Day 5, % of initial content): 96.7%
content ([2]; Day 10, % of initial content): 89.4%
content ([2]; Day 20, % of initial content): 78.7%
content ([2]; Day 30, % of initial content): 77.3%
content [3]: 100.0%
content ([4]; Month 0, initial content set at 100%): 100%
content ([4]; Month 1): 98.0%
content ([4]; Month 2): 99.1%
content ([5]; near UV 90 μW/cm^2, Day 0, initial content set at 100%): 100%
content ([5]; near UV 90 μW/cm^2, Day 5): 97.8%
content ([5]; near UV 90 μW/cm^2, Day 10): 91.8%
content ([5]; near UV 90 μW/cm^2, Day 20): 88.5%

co-crystal of D-α-tocopherol and L-proline
flavor (rancidity) of beef [6]: except for the sample added with the co-crystal of D-α-tocopherol and L-proline, both of the other two samples have rancidity
meat color of beef [6]: can delay the darkening and greening of beef

— patent US20200331855A1, “CO-CRYSTAL OF TOCOPHEROL AND PROLINE AND PREPARATION METHOD THEREOF” (priority 2017, published 2020)
